Earlier results on five compounds are cited in US10786531B2, “Mineral salt-sulfonic acid compositions and methods of use” (BMG PHARMA SPA, priority 2009, dated 2020).

Read-outs that look alike come from different tables or passages of the source.

Data set [1] deals with dermal abrasion.
The conditions of data set [2]: solutions of 0.2-1%.

`[O]=[Zn]` [zinc oxide]: in data set [1] (20% suspension), the dermal irritancy entry is recorded as “not overtly irritant”.

As to `O=S(=O)([O-])[O-].[Zn+2]` [zinc sulfate], the dermal irritancy entry in data set [1] (1% aqueous) is given as “not overtly irritant”. Besides, in data set [2], the “irritation when applied circumorally” value is recorded as “severe irritation”.

With zinc pyrithione, in data set [1] (20% suspension), the dermal irritancy result is on record as “not overtly irritant”.

`[Cl-].[Cl-].[Zn+2]` [zinc chloride]: the dermal irritancy entry in data set [1] (1% aqueous) is on record as “severe irritant”.

Consider `CC(=O)[O-].CC(=O)[O-].[Zn+2]` [zinc acetate], for which the dermal irritancy entry in data set [1] (20% aqueous) is given as “slightly less irritant”.
